Source: US10252997B2, “Monocyclic compound” (Takeda Pharmaceutical Company Limited, priority 2015, dated 2019)

Columns and labels:
[1] = system: collagen I gene expression level in liver; test: Inhibitory effect on liver fibrosis caused by NASH (collagen I gene expression level in liver); type: in vivo; settings: homo low-density lipoprotein receptor deficient mouse, choline-deficient amino acid diet, oral once per day for three weeks
Method: The action on liver fibrosis caused by non-alcoholic steatohepatitis (NASH) was verified by the following method.
For efficacy evaluation of action on the above-mentioned fibrosis, 9-week-old, male, homo low-density lipoprotein receptor deficient mouse (Jackson Laboratories (Bar Harbor Me., USA)) was used. Specifically, a choline-deficient amino acid diet (A08111307, Research Diets, New Brunswick, N.J., USA) was fed to the above-mentioned mouse for one week, and a drug was administered for three weeks, and then the collagen I gene expression level in liver after the drug administration was measured.
(§1) For the above-mentioned drug administration group, the test compound suspended in 0.5% methylcellulose solution was orally administered by gavage using a stomach gavage needle once per day (n=8). […]
The measurement of the collagen I gene expression level in liver was performed by the following method. […] The total RNA was purified using RNeasy Mini Kit (Qiagen, Valencia, Calif., USA), and cDNA was prepared using High Capacity cDNA Reverse Transcription Kit (PN4368814, Applied Biosystems, Foster City, Calif., USA), and the collagen I gene expression level was measured (collagen type I alpha 1, Part Number 4351370, Applied Biosystems) by the quantitative PCR method (TaqMan Gene Expression Master Mix, PN4369016, Applied Biosystems). […]

HCT116 cells = test: Growth inhibitory activity on HCT116 cell (CellTiter-Glo); type: cell-based; settings: Homo sapiens, HCT-116, 72 h; test compound 1 μM, 3 days; read-out: HCT116 cell proliferation inhibitory rate (%) at 1 μM
Method: The growth inhibitory activity of the compound on HCT116 cell was evaluated by the following method.
HCT116 cells were seeded in a 384 well blackplate at 900 cells/[…]/well, and maintained in an assay medium (RPMI medium (Wako) containing 2% fetal bovine serum, 50 Unit/mL penicillin and […] streptomycin (Invitrogen)). The next day, a test compound dissolved in dimethyl sulfoxide (DMSO) was diluted with the assay medium, and the obtained compound solution was added by […] to each well of a plate containing HCT116 cells, and incubated at 37° C., 5% CO2 (test compound addition group).
A similar reaction was performed without adding a test compound (test compound non-addition group).
Furthermore, a similar reaction was performed under the conditions without adding HCT116 cell and a test compound (control group).
After 3 days, […] of a CellTiter-Glo reagent (Promega KK) was added to the well, and the mixture was stirred for 10 min. Thereafter, the luminescence value of each well was measured by the EnVision™ multilabel counter (Perkin Elmer Inc.).
The HCT116 cell proliferation inhibitory rate (%) of the test compound was determined by the following calculation formula. (1−(luminescence of test compound addition group−luminescence of control group)÷(luminescence of test compound non-addition group−luminescence of control group))×100
The HCT116 cell proliferation inhibitory rates (%) of the test compound (1 μM) are shown below.

[2] = Anti-fatty liver effect (triglyceride amount in liver); type: in vivo; settings: homo low-density lipoprotein receptor deficient mouse, choline-deficient amino acid diet, oral once per day for three weeks
Source text: As representative examples of anti-fatty liver effect, the action on fatty liver caused by non-alcoholic steatohepatitis was verified by the following method.
For efficacy evaluation of action on the above-mentioned fibrosis, 9-week-old, male, homo low-density lipoprotein receptor deficient mouse (Jackson Laboratories (Bar Harbor Me., USA)) was used. Specifically, a choline-deficient amino acid diet (A08111307, Research Diets, New Brunswick, N.J., USA) was fed to the above-mentioned mouse for one week, and a drug was administered for three weeks, and then the triglyceride amount in liver after the drug administration was measured.
as §1
The measurement of the triglyceride amount in liver was performed by the following method. […] The total weight of the isolated liver was measured, and a part of the liver was immediately cryopreserved using dry ice. […] The dried substance was dissolved in 2-propanol, and the triglyceride concentration in the solution was measured by autoanalyzer (Hitachi 7180 type). The total triglyceride amount in the liver (mg/liver) was calculated from the weight of the liver used for the measurement and the total liver weight. […]

C[C@@H](COc1cnc(-c2ccc(Oc3cccc(OCC4CC4)c3)cc2)o1)NC(N)=O [Example 82, 1-((2S)-1-((2-(4-(3-(cyclopropylmethoxy)phenoxy)phenyl)-1,3-oxazol-5-yl)oxy)propan-2-yl)urea]
inhibitory effect on liver fibrosis caused by non-alcoholic steatohepatitis (collagen I gene expression level in liver, FIG. 1) [1]: superior inhibitory effect on liver fibrosis caused by non-alcoholic steatohepatitis | inhibition at 1 µM (HCT116 cells): 33% | inhibitory effect on fatty liver caused by non-alcoholic steatohepatitis (triglyceride amount in liver, FIG. 2) [2]: superior inhibitory effect on fatty liver caused by non-alcoholic steatohepatitis
